Reference: ChEMBL document CHEMBL1130373, “Dual CCK-A and -B receptor antagonists (I) C9-methyl-1,4-benzodiazepines” (Bioorg Med Chem Lett, 1997)

Legend:
[1] = molecular target: T1, Cholecystokinin receptor type A (Rattus norvegicus, UniProt P30551); assay: Inhibition of [125I]Cholecystokinin-8 binding to Cholecystokinin type A receptor of rat pancreatic membranes; format: cell membranes, Membrane
T1 sequence (P30551 whole entry): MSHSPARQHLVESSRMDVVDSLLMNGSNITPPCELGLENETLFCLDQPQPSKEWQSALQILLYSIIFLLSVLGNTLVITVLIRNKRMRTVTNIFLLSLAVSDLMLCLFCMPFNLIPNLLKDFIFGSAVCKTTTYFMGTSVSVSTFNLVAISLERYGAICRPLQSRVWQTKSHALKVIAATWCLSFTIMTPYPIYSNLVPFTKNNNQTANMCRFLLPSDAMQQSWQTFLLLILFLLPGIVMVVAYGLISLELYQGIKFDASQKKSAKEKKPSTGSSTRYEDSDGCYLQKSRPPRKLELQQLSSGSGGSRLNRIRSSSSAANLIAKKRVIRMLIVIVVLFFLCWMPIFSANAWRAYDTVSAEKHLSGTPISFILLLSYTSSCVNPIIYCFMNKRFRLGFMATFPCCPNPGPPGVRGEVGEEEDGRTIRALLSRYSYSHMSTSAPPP

[2] = Selectivity for cholecystokinin A and B receptors
[3] = molecular target: T1, Cholecystokinin receptor type A; assay: Inhibition of [125I]Cholecystokinin-8 (125I-CCK-8) binding to Cholecystokinin type A receptor of rat pancreatic membranes; format: cell membranes, Membrane

Cc1cccc2c1N(CC(=O)N1CC3CCC(CC3)C1)C(=O)C(NC(=O)Nc1cccc(-c3nn[nH]n3)c1)N=C2c1ccccc1F (stereo in doubt; (-)-11) [listing 1 of 2 here]
IC50 [1]: 670 nM

Cc1cccc2c1N(CC(=O)N1CC3CCC(CC3)C1)C(=O)C(NC(=O)Nc1cccc(-c3nn[nH]n3)c1)N=C2c1ccccc1F (single isomer, unassigned; (+)) [listing 1 of 2 here]
Selectivity [2]: 24

Cc1cccc(NC(=O)NC2N=C(c3ccccc3F)c3cccc(C)c3N(CC(=O)N3CC4CCC(CC4)C3)C2=O)c1 (configuration not stated)
IC50 [3]: 17 nM
Selectivity [2]: 36

COc1cccc(NC(=O)NC2N=C(c3ccccc3F)c3cccc(C)c3N(CC(=O)N3CC4CCC(CC4)C3)C2=O)c1 (configuration not stated)
IC50 [3]: 7.3 nM
Selectivity [2]: 7.3

CSc1cccc(NC(=O)NC2N=C(c3ccccc3F)c3cccc(C)c3N(CC(=O)N3CC4CCC(CC4)C3)C2=O)c1 (configuration not stated)
IC50 [3]: 21 nM
Selectivity [2]: 57

Cc1cccc2c1N(CC(=O)N1CC3CCC(CC3)C1)C(=O)C(NC(=O)Nc1cccc(-c3nn[nH]n3)c1)N=C2c1ccccc1F (stereo in doubt; (-)-11) [listing 2 of 2 here]
Selectivity [2]: 110

Cc1cccc2c1N(CC(=O)N1CC3CCC(CC3)C1)C(=O)C(NC(=O)Nc1cccc(C(=O)O)c1)N=C2c1ccccc1F (configuration not stated)
IC50 [3]: 160 nM
Selectivity [2]: 170

Cc1cccc2c1N(CC(=O)N1CC3CCC(CC3)C1)C(=O)C(NC(=O)Nc1cccc(Br)c1)N=C2c1ccccc1F (configuration not stated)
IC50 [3]: 5.1 nM
Selectivity [2]: 2.8

Cc1cccc2c1N(CC(=O)N1CC3CCC(CC3)C1)C(=O)C(NC(=O)Nc1cccc(Cl)c1)N=C2c1ccccc1F (configuration not stated)
IC50 [3]: 7.4 nM
Selectivity [2]: 3.7

Cc1cccc2c1N(CC(=O)N1CC3CCC(CC3)C1)C(=O)C(NC(=O)Nc1cccc(-c3nn[nH]n3)c1)N=C2c1ccccc1F (single isomer, unassigned; (+)) [listing 2 of 2 here]
IC50 [1]: 9.2 nM

Cc1cccc2c1N(CC(=O)N1CC3CCC(CC3)C1)C(=O)C(NC(=O)Nc1cccc(-c3nn[nH]n3)c1)N=C2c1ccccc1F (stereo in doubt; 11) [listing 1 of 2 here]
IC50 [3]: 14 nM

CC(=O)c1cccc(NC(=O)NC2N=C(c3ccccc3F)c3cccc(C)c3N(CC(=O)N3CC4CCC(CC4)C3)C2=O)c1 (configuration not stated)
IC50 [3]: 13 nM
Selectivity [2]: 15

Cc1cccc(NC(=O)NC2N=C(c3ccccc3F)c3ccccc3N(CC(=O)N3CC4CCC(CC4)C3)C2=O)c1 (configuration not stated)
IC50 [3]: 62 nM
Selectivity [2]: 710

Cc1cccc2c1N(CC(=O)N1CC3CCC(CC3)C1)C(=O)C(NC(=O)Nc1cccc(-c3nn[nH]n3)c1)N=C2c1ccccc1F (stereo in doubt; 11) [listing 2 of 2 here]
Selectivity [2]: 21
